Reference: EP4778526A1, “ANTI-AGING AGENT, ORAL COMPOSITION FOR ANTI-AGING, AND USE OF COMPOUND” (Institute of Rheological Function of Food Co., Ltd., priority 2023, dated 2025)

Assays:
NAMPT [1] = assay: Test Example 1: real-time PCR of NAMPT mRNA expression in HHORSCs cultured with KIT13; assay type: cell-based; details: Human hair outer root sheath cells (HHORSCs), 5 µg/ml, 7 hours; mRNA normalized by 18S rRNA; vs culture medium not containing KIT13; FIG. 1
Experimental: (§1) Human hair outer root sheath cells (HHORSCs; manufactured by ScienCell Research Laboratories, #2420) were cultured for 7 hours in a culture medium containing 5 µg/ml of KIT13. As a culture medium for HHORSCs, a mesenchymal stem cell medium (manufactured by ScienCell Research Laboratories, #7501) was used. As a negative control, HHORSCs were cultured in a culture medium not containing KIT13.
(§2) RNA was extracted from cells using TRIzol (manufactured by Thermo Fisher Scientific). Subsequently, a first strand cDNA was prepared using PrimeScript RT Master Mix (manufactured by Takara), and mRNA expression of target genes and endogenous control genes was detected by real-time PCR using TB Green Premix Ex Taq II (manufactured by Takara) and T100 (trademark) Thermal Cycler (manufactured by BIO-RAD). The target genes were NAMPT, SIRT1, and NRF1, UQCRC1, and ATP5A1 whose expression is induced by activation of SIRT1 (Yuanyuan Huang, and ten others, "Resveratrol-induced Sirt1 phosphorylation by LKB1 mediates mitochondrial metabolism", J. Biol. Chem., 2021, 297(2), 100929). As the endogenous control gene, 18S ribosomal RNA (18S rRNA) was used, and measurement values of each gene were normalized by measurement values of 18S rRNA.

SIRT1 [2] = assay: Test Example 1: real-time PCR of SIRT1 mRNA expression in HHORSCs cultured with KIT13; assay type: cell-based; details: Human hair outer root sheath cells (HHORSCs), 5 µg/ml, 7 hours; mRNA normalized by 18S rRNA; vs culture medium not containing KIT13; FIG. 2
Experimental: as §1, §2

NRF1 = assay: Test Example 1: real-time PCR of NRF1 mRNA expression in HHORSCs cultured with KIT13; assay type: cell-based; details: Human hair outer root sheath cells (HHORSCs), 5 µg/ml, 7 hours; mRNA normalized by 18S rRNA; vs culture medium not containing KIT13; FIG. 3
Experimental: as §1, §2

UQCRC1 = assay: Test Example 1: real-time PCR of UQCRC1 mRNA expression in HHORSCs cultured with KIT13; assay type: cell-based; details: Human hair outer root sheath cells (HHORSCs), 5 µg/ml, 7 hours; mRNA normalized by 18S rRNA; vs culture medium not containing KIT13; FIG. 4
Experimental: as §1, §2

ATP5A1 = assay: Test Example 1: real-time PCR of ATP5A1 mRNA expression in HHORSCs cultured with KIT13; assay type: cell-based; details: Human hair outer root sheath cells (HHORSCs), 5 µg/ml, 7 hours; mRNA normalized by 18S rRNA; vs culture medium not containing KIT13; FIG. 5
Experimental: as §1, §2

NAMPT [3] = assay: Test Example 2: real-time PCR of NAMPT mRNA expression in femoral muscle of mice given KIT13; assay type: in vivo; details: four-week-old male c57BL6J mice, by drinking water, 20 µg/kg for four weeks; femoral muscles; mRNA normalized by β-actin; FIG. 6
Experimental: (§3) KIT13 was administered to four-week-old male c57BL6J mice (five mice per group, n = 5) by drinking water at a dose of 20 µg/kg for four weeks. Femoral muscles were collected from each mouse and analyzed as follows.
(§4) Femoral muscles were crushed by homogenization using 18G to 25G injection needles in Buffer A (0.25 M sucrose, 10 mM Hepes-KOH (pH 7.5), 1 mM EDTA, protease inhibitor cocktail), and RNA was extracted from the cells based on equal amounts of protein using TRIzol (manufactured by Thermo Fisher Scientific). Subsequently, a first strand cDNA was prepared using PrimeScript RT Master Mix (manufactured by Takara), and mRNA expression of target genes and endogenous control genes was detected by real-time PCR using TB Green Premix Ex Taq II (manufactured by Takara) and T100 (trademark) Thermal Cycler (manufactured by BIO-RAD). The target genes were NAMPT and SIRT1, and the endogenous control gene was β-actin. Measurement values of each gene were normalized by measurement values of β-actin.

SIRT1 [4] = assay: Test Example 2: real-time PCR of SIRT1 mRNA expression in femoral muscle of mice given KIT13; assay type: in vivo; details: four-week-old male c57BL6J mice, by drinking water, 20 µg/kg for four weeks; femoral muscles; mRNA normalized by β-actin; FIG. 7
Experimental: as §3, §4

`CCCCC/C=C\C/C=C\C/C=C\C/C=C\CCCC(=O)O[C@H](COCCCCCCCCCCCCCCCCCC)COP(=O)(O)OCCN` [KIT13] was tested, and the “relative expression level of NAMPT” value (NAMPT [1]) was “significantly increased”, the “relative expression level of SIRT1” value (SIRT1 [2]) was “significantly increased” and the “relative expression level of NRF1” value (NRF1) was “increased”. For the same compound, the “relative expression level of UQCRC1” value (UQCRC1) was “increased”, the “relative expression level of ATP5A1” value (ATP5A1) was “increased” and the “relative expression level of NAMPT in muscle” value (NAMPT [3]) was “significantly increased”. For the same compound, the “relative expression level of SIRT1 in muscle” value (SIRT1 [4]) was “significantly increased”.
